Data published in ChEMBL document CHEMBL1201862, “PubChem BioAssay data set” (2004).
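All cell lines were grown in 96-well plates and treated with compound for 48 hours. Here, GI50 denotes the concentration required for 50% inhibition of growth.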 Calls of active or inactive are those of the source. Cut-off read from the data, not from the text of the source: active = GI50 up to about 1.1 µM and inactive = higher.

Key:
Assay in all cases: NCI tumour cell line growth inhibition, 48 h
EKVX = system: EKVX
SK-OV-3 = system: SK-OV-3
RPMI-8226 = system: RPMI-8226
HOP-62 = system: HOP-62
OVCAR-8 = system: OVCAR-8
TK-10 = system: TK-10
786-0 = system: 786-0
SF-539 = system: SF-539
HCC 2998 = system: HCC 2998
CAKI-1 = system: CAKI-1
KM12 = system: KM12
SK-MEL-5 = system: SK-MEL-5
U-251 = system: U-251
HL-60 = system: HL-60
SNB-19 = system: SNB-19
A549 = system: A549
SF-295 = system: SF-295
OVCAR-5 = system: OVCAR-5
IGROV-1 = system: IGROV-1
ACHN = system: ACHN

Row | SMILES | GI50 (EKVX) | GI50 (SK-OV-3) | GI50 (RPMI-8226) | GI50 (HOP-62) | GI50 (OVCAR-8) | GI50 (TK-10) | GI50 (786-0) | GI50 (SF-539) | GI50 (HCC 2998) | GI50 (CAKI-1) | GI50 (KM12) | GI50 (SK-MEL-5) | GI50 (U-251) | GI50 (HL-60) | GI50 (SNB-19) | GI50 (A549) | GI50 (SF-295) | GI50 (OVCAR-5) | GI50 (IGROV-1) | GI50 (ACHN)
1 | O=C1C=C(OCCCCl)C(=O)c2c(O)ccc(O)c21 | 1.79 µM (inactive) | 2.24 µM (inactive) | 2.06 µM (inactive) | 1.42 µM (inactive) | 2.07 µM (inactive) | 1.81 µM (inactive) | 1.56 µM (inactive) | 1.38 µM (inactive) | 1.91 µM (inactive) | 1.85 µM (inactive) | 1.78 µM (inactive) | 0.163 µM (active) | 2.01 µM (inactive) | 0.792 µM (active) | 1.8 µM (inactive) | 0.266 µM (active) | 0.82 µM (active) | 1.43 µM (inactive) | 1.8 µM (inactive) | 1.59 µM (inactive)
2 | CO[C@]12C[C@@H](CNC(=O)c3cc(Br)c[nH]3)O[C@H]1NC(=O)N2 | > 100 µM (inactive) | > 100 µM (inactive) | > 100 µM (inactive) | > 100 µM (inactive) | > 100 µM (inactive) | > 100 µM (inactive) | > 100 µM (inactive) | > 100 µM (inactive) | > 100 µM (inactive) | > 100 µM (inactive) | > 100 µM (inactive) | > 100 µM (inactive) | > 100 µM (inactive) | > 100 µM (inactive) | > 100 µM (inactive) | > 100 µM (inactive) | > 100 µM (inactive) | > 100 µM (inactive) | > 100 µM (inactive) | > 100 µM (inactive)
3 | CCN(CC)c1c(C(C)(C)C)c(=O)n2ccsc2c1OC(C)=O | 15.1 µM (inactive) | 18.2 µM (inactive) | 13.8 µM (inactive) | 13.3 µM (inactive) | 15 µM (inactive) | 19.8 µM (inactive) | 19.9 µM (inactive) | 19.1 µM (inactive) | 17.4 µM (inactive) | 18.6 µM (inactive) | 15.5 µM (inactive) | 18.1 µM (inactive) | 17 µM (inactive) | 29.4 µM (inactive) | 16.6 µM (inactive) | 15 µM (inactive) | 17.1 µM (inactive) | 15.8 µM (inactive) | 16.8 µM (inactive) | 16.2 µM (inactive)
4 | CC(=O)CC(=O)Nc1ccccc1[N+](=O)[O-] | > 100 µM (inactive) | > 100 µM (inactive) | > 100 µM (inactive) | > 100 µM (inactive) | > 100 µM (inactive) | > 100 µM (inactive) | > 100 µM (inactive) | > 100 µM (inactive) | > 100 µM (inactive) | > 100 µM (inactive) | > 100 µM (inactive) | > 100 µM (inactive) | > 100 µM (inactive) | > 100 µM (inactive) | > 100 µM (inactive) | > 100 µM (inactive) | > 100 µM (inactive) | > 100 µM (inactive) | > 100 µM (inactive) | > 100 µM (inactive)
5 | Cc1nn(C(=O)c2ccc(Cl)cc2)c2c1C(c1cccc([N+](=O)[O-])c1)SC(=N)N2 (stereo not given) | > 10 µM (inactive) | > 10 µM (inactive) | > 10 µM (inactive) | > 10 µM (inactive) | > 10 µM (inactive) | > 10 µM (inactive) | > 10 µM (inactive) | > 10 µM (inactive) | > 10 µM (inactive) | > 10 µM (inactive) | > 10 µM (inactive) | > 10 µM (inactive) | > 10 µM (inactive) | > 10 µM (inactive) | > 10 µM (inactive) | > 10 µM (inactive) | > 10 µM (inactive) | > 10 µM (inactive) | > 10 µM (inactive) | > 10 µM (inactive)
6 | N=C(N)c1ccc(/N=N/c2c(O)ccc3cc(O)ccc23)cc1 | > 100 µM (inactive) | > 100 µM (inactive) | > 100 µM (inactive) | > 100 µM (inactive) | > 100 µM (inactive) | > 100 µM (inactive) | > 100 µM (inactive) | > 100 µM (inactive) | > 100 µM (inactive) | > 100 µM (inactive) | > 100 µM (inactive) | > 100 µM (inactive) | > 100 µM (inactive) | > 100 µM (inactive) | > 100 µM (inactive) | > 100 µM (inactive) | > 100 µM (inactive) | > 100 µM (inactive) | > 100 µM (inactive) | > 100 µM (inactive)
7 | Cc1cn(C2CC(O)C(COP(=O)(O)OC3CC(n4c[n+]([BH2-]C#N)c5c(=O)[nH]c(N)nc54)OC3CO)O2)c(=O)[nH]c1=O (stereo not given) | > 100 µM (inactive) | > 100 µM (inactive) | > 100 µM (inactive) | > 100 µM (inactive) | > 100 µM (inactive) | > 100 µM (inactive) | > 100 µM (inactive) | > 100 µM (inactive) | > 100 µM (inactive) | > 100 µM (inactive) | > 100 µM (inactive) | > 100 µM (inactive) | > 100 µM (inactive) | > 100 µM (inactive) | > 100 µM (inactive) | > 100 µM (inactive) | > 100 µM (inactive) | > 100 µM (inactive) | > 100 µM (inactive) | > 100 µM (inactive)
